Experimental data published in US20110039812A1, “N-ALKYLCARBONYL-D-AMINO HYDROXYALKYL ESTER COMPOUNDS AND THEIR USE” (priority 2006, published 2011).

Tests used:
[1] = test system: dorsal surface of the tongue; conditions: average for 6 subjects, after 30 seconds; cited from earlier work
oral cavity = assay: Oral cavity test of tablets placed in the back of the mouth; assay type: in vivo, human
Method: The NACHE were also tested in the oral cavity using these methods: a) placement of 2 mg of the crystalline chemical on the dorsal surface of the tongue, b) incorporation of 2 mg of NACHE into a rapidly-distintegrating tablet of 60 mg weight, and placement of the tablet on the caudal-dorsal surface of the tongue, c) placement of a 0.3 mL aliquot of a 5 mg/mL solution of a NACHE in a 50% ethanol-distilled water solution, and d) delivery of a 5 mg/mL solution of a NACHE in a 50% ethanol-distilled water solution into the oral cavity using a hand-activated mouth spray dispenser. The tests in the oral cavity were important because many cooling agents used in confectionery and comestibles have disagreeable tastes of bitterness, harshness or burning qualities that limit their utility in such items as candy, mints, mouthwashes, mouth fresheners, and cough syrups.
Tablets of CPS-154 were prepared. To weighed samples of about 200 mg of CPS-154 was added varying amounts of Ludipress® (BASF, Germany) to give CPS-154 concentrations of 2.5, 3. 5, 10 and 10% by wt. The two ingredients were then thoroughly mixed in a mortar and pestle. To this mixture when then added 5 to 7 mL of 10% ethanol −90% distilled water solution. Using an eye dropper or a pipette, fixed volumes of the solution was placed on wax paper and dried under a heat source. The tablets were then sized and weighed.
Using the above formulation methods, three doses of 1, 2 and 4 mg per application were examined. […] The onset effect was usually within 30 seconds of application. […] Also, the effects of menthol were short-lived, on the order 8 to 12 minutes, versus a 20 to 30 minute period or longer.

cough [2] = assay: Powder on the tongue of two cigar smokers with cough; assay type: in vivo, human
Source text: Two males, were inveterate cigar smokers consuming 3 to 5 cigars per day. They both had frequent bouts of dry, non-productive, hacking coughs. At night, there were episodes of insomnia characterized by difficulties in breathing, an oppressive pressure on the chest and throat, and subsequent awakening with sensations of choking. During the day, a frequent and persistent sensation was that of tickling, irritative feelings in the back of the throat that led to coughing.
In 10 trials per subject, 2 mg of 92% pure powder of CPS-154 was placed on the mid-portion of the tongue of these two subjects. Both subjects reported relief from the desire to cough within 1 minute after application. Sensations of robust coolness in the back of the throat was noted and lasted for 15 to 20 minutes. Applications of similar amounts of powdered sugar were not effective, but the placebo could be clearly distinguished from the active compound because of the absence of cooling sensations.

[3] = test system: asthmatic coughing attacks; assay: Tablets as needed in a subject with asthma; assay type: in vivo, human
Source text: A person with a documented 31-year history of asthma attacks volunteered to test one of the compounds of Formula 1. They were extremely sensitive to agents such as tobacco smoke, dust, pollen, odors, down/woolen materials, house cleansing products, pets, and sudden change of air temperature and reacted with violent coughing, mucus secretions, wheezing, choking, and shortness of breath. At the time of this trial, they were taking these medications for their condition: theophylline, Allegra®, Advair®, Intal®, and Singulair®. They were given 20 tablets of CPS-154, synthesized as described in Example 3, and instructed to take one on an as-needed basis.

cough [4] = assay: Orally-disintegrating tablet in the back of the mouth, anti-tussive action; assay type: in vivo; conditions: 40 to 60 mg Ludipress tablet containing 1 to 5 mg
Source text: Especially favored in this invention is the formulation of the NACHE of Formula 1, into an orally-disintegrating tablet.

viral cough = assay: Tablets as needed in a subject with viral cough; assay type: in vivo, human; conditions: 2.0 mg tablets as needed
Method: A person has severe allergies and also developed a cough after a cruise trip overseas. Upon visit to a physician, they were diagnosed with a “viral cough” and prescribed codeine in a syrup. They volunteered to try CPS-154 tablets and was supplied with 15 tablets stored in a flip top plastic box, each containing 2.0 mg of CPS-154, in a 4% wt/wt lactose matrix (Ludipress®). The subject was instructed to take one tablet on an as-needed basis, with a preferred interval of 3 to 4 hours between tablets.

skin above the upper lip = assay: Cooling sensation bioassay: ointment applied to skin above the upper lip; assay type: in vivo, human
Source text: A reliable place for topical application is the skin above the upper lip (above the vermilion border of the lips), on the philtrum, lateral to the philtrum until the nasolabial folds, and on the lower nostrils (subnasale). This part of the face is known to be densely innervated with cold receptors, second only to the surfaces of the eyeball and anogenitalia. A second location is on or below the malar eminence (cheekbone). The skin above the cheekbone is thicker than above the lips, and therefore has a higher threshold for activation. At both loci, tingling, cool and cold sensations in the skin may be experienced and rated for time of onset and intensity.
The intensity of the subjective skin sensation is rated as 0, 1, 2 or 3 with 0 as no change, 1 as slight coolness, cold, or tingling, 2 as clear-cut signal of coolness, cold, or tingling, and 3 as robust cooling or cold. The intervals for recording sensations are 5 to 10 minutes, until two successive zeroes are obtained. The results (shown in FIG. 1) are averaged values of 4 to 6 separate trials in the same individual. The data are plotted using SigmaPlot (Systat Software, Point Richmond Calif.) and a smoothing function with a negative eponential was used for analysis and statistical fit of the results. […]

Structure (SMILES)	Threshold (amount producing cooling sensations on the tongue), average [1] [µg]	quality and site of cooling sensations (oral cavity; tablets, 2 or 4 mg dose)	time to relief from the desire to cough (cough [2]; 2 mg of 92% pure powder on mid-portion of the tongue, 2 subjects) [min]	time the desire to cough was removed (cough [2]; after 8 applications, continued smoking of cigars)	recurrence of asthmatic coughing attacks ([3]; continued use of tablets as needed)	side-effects ([3]; one tablet, asthma subject)	anti-tussive action (cough [4])	dissolution of tablets in the back of the mouth (oral cavity; Ludipress tablets)	activity in the oral cavity, D-analog versus L-equivalent (oral cavity; tablets)	onset of cooling effect after application (oral cavity; tablets, 2 or 4 mg dose) [s]	effect on cough severity (viral cough)	duration of action of cooling on the skin of the upper lip (skin above the upper lip; Aquaphor ointment 0.5 and 1% wt/vol, 50 to 80 mg)	potency / cooling activity on the skin of the upper lip (comparison, FIG. 1) (skin above the upper lip; ointment on upper lip skin)
CC1CCC(C(C)C)C(O)C1 (single isomer, unassigned; (-)) [Menthol, (−)-menthol, reference compound]	0.25	cooling primarily in the nasopharynx and less in the oral cavity	–	–	–	–	–	–	–	–	–	–	–
CC(C)[C@@H]1CC[C@@H](C)C[C@H]1C(=O)N[C@H](C)C(=O)OCCCO [CPS-154, (R)-2-[((1R,2S,5R)-2-isopropyl-5-methyl-cyclohexanecarbonyl)-amino]-propionic acid 3-hydroxy-propyl ester]	–	pleasant and robust cooling sensations on the tongue, extending down to the back of throat	≤ 1	at least 3 days	have not recurred with any severity for six months	did not sense any build up of sputum or other side-effects	robust anti-tussive action for several hours	dissolved within a matter of seconds	clearly more active than the L-equivalent	≤ 30	less severe	more than 1 hour	comparable to its alkyl ester analog, CPS-369
